Test in all cases: DTP human tumour cell line panel, 48 h
For test [1], the system named is U251 CNS.
The test system of test [2] is SNB-19 CNS.
For test [3], the system named is TK-10 renal.
The subject of test [4] is A549 NSCLC.
In test [5] the test system is COLO 205 colon.
The test system of test [6] is OVCAR-8 ovarian.
In test [7] the test system is UACC-62 melanoma.
The test system of test [8] is MOLT-4 leukemia.
The subject of test [9] is MDA-MB-231 breast.
Test [10] has as its system M14 melanoma.

Several values for one entry are separate records, joined by “and”; a condition that tells them apart may be missing. Equal values may be shown once.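 Cells were grown in 96-well plates and exposed to each compound for 48 hours at five concentrations; endpoints were interpolated linearly between bracketing concentrations, or set to the highest concentration if not reached. GI50: concentration for 50% inhibition of growth. TGI marks complete inhibition of growth.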

By GI50 is commonly meant the concentration giving 50% growth inhibition. Broadly, the TGI is the concentration at which net growth stops. A lower TGI goes with more potent growth arrest.

As for `Cc1cc(NC(=O)NC(=O)c2ccccc2NC(=O)CN)ccc1Oc1ncc(Br)cn1`, the GI50 in test [1] is 0.409 µM; in test [2], 0.336 µM; in [3] it was 3.73 µM; in test [6], 0.65 µM; in test [7], 0.112 µM; in test [8], 0.0807 µM. Moreover, in test [10], the GI50 was 0.117 µM. For the same molecule, the TGI was 15 µM and 20.6 µM in [1]; 26.3 µM and 16.4 µM in test [2]; 36.4 µM and 25.3 µM in [3]; 35.8 µM in test [4]; 2.24 µM in test [5]; 45.7 µM and 17.8 µM in test [6]. The TGI is 19.8 µM and 15.4 µM in [7]; 75 µM and > 100 µM in [8]; 5.17 µM and 14 µM in [9].

In the case of `Cc1ccccc1C(C(=O)NC1CCCCC1)N(C(=O)Cn1ccnc1C)c1cccc(F)c1` (centres undefined), the GI50 in test [1] is over 52.1 µM; in test [2], 57 µM; in test [3] it was 27.5 µM; in [4] it was over 100 µM; in test [5], over 92.1 µM; in test [6], over 82.6 µM. In addition, the GI50 is 59.3 µM in [7], over 100 µM in test [8], 35.8 µM in [9] and over 100 µM in [10]. Further, the concentration for total growth inhibition (TGI) in test [1] is over 100 µM; in [2], over 100 µM; in test [3] it was 71.7 µM; in test [4] it was over 100 µM; in test [5], over 100 µM; in [6], over 100 µM. For the same molecule, the TGI in test [7], in test [8], in test [9] and in test [10] was over 100 µM throughout.

As to `COc1ccc(-n2c(C)nc3c(c(C)nn3-c3ccccc3)c2=O)cc1`, the GI50 was 0.0614 µM in [1]; 0.064 µM in [2]; 9.02 µM in [3]; 0.107 µM in test [4]; 0.12 µM in test [5]; 0.177 µM in [6]. Further, the GI50 in test [7] was 0.0426 µM; in test [8], 0.196 µM; in test [9], 0.311 µM; in test [10], 0.0491 µM. The total growth inhibition concentration (TGI) is over 100 µM in [1]; over 100 µM in test [2]; over 100 µM in [3]; over 100 µM in test [4]; 1.93 µM in test [5]; over 100 µM in test [6]. Moreover, the TGI was over 100 µM in test [7], over 40.4 µM in test [8], over 100 µM in [9] and over 100 µM in [10].

Turning to `COc1ccc(/C=C\c2cc(OC)c(OC)c(OC)c2)cc1OCC(=O)Nc1nc2ccc(OC(F)(F)F)cc2s1`, the GI50 is 3.37 µM in [1]; 7.08 µM in test [2]; 18.6 µM in test [3]; 6 µM in [4]; 43.3 µM in test [5]; 5 µM in test [6]. Also, the GI50 in test [7] was 5.11 µM; in test [8], 4.21 µM; in [9], 5.16 µM; in test [10], 4.36 µM. Moreover, the concentration for total growth inhibition (TGI) in test [1], in test [2], in [3], in test [4], in test [5] and in [6] was over 100 µM in each case. Also, the TGI in test [7], in test [8], in [9] and in test [10] was over 100 µM each time.

Regarding `Cc1cc(N=C2C=C(Nc3cc(C)on3)C(=O)c3ccccc32)no1`, the concentration for total growth inhibition (TGI) is over 95.1 µM in test [1]; over 100 µM in test [2]; over 100 µM in [3]; over 100 µM in [4]; over 88.3 µM in test [5]; over 100 µM in test [6]. Moreover, the TGI in test [7] was 38.4 µM; in test [8], over 100 µM; in [9] it was 28.7 µM; in [10], over 100 µM.

For `COc1ccc2c(c1)C(=O)c1c-2n(CCCN2CCOCC2)c(=O)c2cc([N+](=O)[O-])ccc12`, the GI50 was under 0.01 µM in test [1]; under 0.01 µM in test [2]; 0.0623 µM in [3]; under 0.01 µM in test [4]; under 0.0111 µM in test [5]; under 0.01 µM in test [6]. The GI50 in [7] was under 0.01 µM; in test [8], under 0.01 µM; in [9], 0.661 µM; in test [10] it was under 0.01 µM. Besides, the TGI in test [1] is 0.0598 µM; in test [2] it was over 36.5 µM; in [3], 17.7 µM; in test [4], 3.01 µM; in [5] it was over 45.4 µM; in test [6] it was over 50.6 µM. The total growth inhibition concentration (TGI) in test [7] is 0.0291 µM; in test [9] it was 17.3 µM; in test [10] it was under 0.01 µM.

As to `CNCCOC(=O)/C=C1/CCC2C(C(O)CC3C(C)(C(=O)OC)CCCC23C)C1C` (centres undefined), the 50% growth inhibitory concentration (GI50) in [1] was 0.0183 µM; in test [2], 0.0428 µM; in [3], 0.0168 µM; in test [4] it was under 0.01 µM; in [5], 0.0348 µM; in test [6], 0.018 µM. Moreover, the GI50 was 0.0235 µM in test [7], under 0.01 µM in test [8], 0.0604 µM in [9] and 0.0202 µM in test [10]. The TGI in test [1] turned out to be 0.0341 µM; in [2], 0.152 µM; in test [3], 0.0351 µM; in test [4], 0.0116 µM; in test [5], 0.0958 µM; in test [6], 0.0331 µM. Besides, the total growth inhibition concentration (TGI) in [7] was 0.0559 µM; in test [8], 0.0203 µM; in test [9] it was 0.229 µM; in test [10], 0.0424 µM.

In the case of `O=C(NC1(C(=O)O)CC1c1ccccc1)c1ccccc1` (centres undefined), the total growth inhibition concentration (TGI) in test [1], in test [2], in test [3], in [4], in test [5] and in [6] was over 100 µM each time. For the same molecule, the concentration for total growth inhibition (TGI) in test [7], in test [8], in test [9] and in test [10] was over 100 µM throughout.

As for `CCOC(=O)/C(=C\c1ccc(F)cc1)C(C)=O`, the TGI in test [1] was 40.7 µM; in test [2], over 100 µM; in test [3], 52.3 µM; in test [4] it was over 100 µM; in test [5] it was over 100 µM; in [6], 94.6 µM. Further, the TGI turned out to be 38.1 µM in [7], 89 µM in [8], 52 µM in test [9] and 60.9 µM in test [10].

With `COC(=O)[C@@H]1CCCN1C(=O)[C@H]1CCCN1C(=O)[C@@H](Cc1c[nH]c2ccccc12)NC(=S)Nc1cc(C(F)(F)F)cc(C(F)(F)F)c1`, the GI50 in test [1] was 1.92 µM; in test [2], 3.78 µM; in test [3] it was 2.58 µM; in test [4], 2.19 µM; in test [5], 2.06 µM; in [6], 2.55 µM. For the same molecule, the GI50 in [7] is 2.38 µM; in test [8], 2.88 µM; in [9], 2.34 µM; in test [10], 2.41 µM. The TGI in test [1] was 4.52 µM; in test [2], 14.4 µM; in test [3], 6.62 µM; in test [4] it was 5.54 µM; in [5] it was 3.97 µM; in test [6] it was 6.4 µM. The concentration for total growth inhibition (TGI) in test [7] was determined as 6.29 µM; in test [8], 7.98 µM; in [9], 5.6 µM; in [10] it was 5.86 µM.

Take `COc1ccc(C(=O)CC(c2ccc(OC)c(OC)c2)c2c(O)c3ccccc3oc2=O)cc1OC` (centres undefined): the concentration for total growth inhibition (TGI) in test [1], in test [2], in [3], in test [4], in [5] and in test [6] was over 100 µM each time. Besides, the TGI in test [7], in [8], in [9] and in test [10] was over 100 µM each time.

On to `COc1ccc(C2=C(c3cc(OC)c(OC)c(OC)c3)C(=O)OC2)cc1OC`, for which the GI50 in test [1] is 0.187 µM; in test [2], 0.891 µM; in test [3] it was under 0.0283 µM; in test [4], 0.25 µM; in [5] it was 0.295 µM; in [6] it was 0.163 µM. Further, the GI50 is 0.336 µM in test [7], 0.0466 µM in [8], 0.576 µM in test [9] and 0.0231 µM in [10]. The TGI in test [1] is over 100 µM; in test [2] it was over 100 µM; in test [3], 1.91 µM; in [4], over 29.1 µM; in [5], 0.941 µM; in test [7], over 79.5 µM. The TGI in [8] was over 100 µM; in [9], over 75.9 µM; in [10], 1.76 µM.

In the case of `COc1cc2ncn(-c3cc(OCc4ccccc4S(C)(=O)=O)c(C#N)s3)c2cc1OC`, the GI50 was over 22.3 µM in [1]; 15.1 µM in test [2]; over 25 µM in test [3]; over 25 µM in [4]; over 25 µM in [5]; over 23.1 µM in test [6]. For the same molecule, the GI50 in test [7], in test [8], in test [9] and in test [10] was over 25 µM throughout. In addition, the TGI in [1], in [2], in test [3], in [4], in test [5] and in [6] was over 25 µM throughout. For the same molecule, the TGI in test [7], in test [8], in [9] and in test [10] was over 25 µM in each case.

On to `CN(C)CCNC(=O)c1nc([N+](=O)[O-])cn1C`, for which the concentration for total growth inhibition (TGI) in test [1], in [2], in test [3], in test [4], in test [5] and in test [6] was over 100 µM throughout. The concentration for total growth inhibition (TGI) in test [7], in test [8], in test [9] and in test [10] was over 100 µM throughout.

The values above are taken from PubChem BioAssay (NCI).
